PMC9005681, “Use of AD Informer Set compounds to explore validity of novel targets in Alzheimer's disease pathology” (Alzheimer's & Dementia : Translational Research & Clinical …, 2022)

How the values were obtained:
[1] = target: T1, cloned human or rodent CNS receptors, channels, and transporters (PDSP panel) (Homo sapiens, UniProt P08173); assay: PDSP GPCR panel primary binding assays at 10 μM; conditions: Receptor M4, primary assay, 10 μM; for Mean %: mean of Inhibition 1-4
T1 construct: expressed in transfected cells
T1 sequence (P08173 1-479): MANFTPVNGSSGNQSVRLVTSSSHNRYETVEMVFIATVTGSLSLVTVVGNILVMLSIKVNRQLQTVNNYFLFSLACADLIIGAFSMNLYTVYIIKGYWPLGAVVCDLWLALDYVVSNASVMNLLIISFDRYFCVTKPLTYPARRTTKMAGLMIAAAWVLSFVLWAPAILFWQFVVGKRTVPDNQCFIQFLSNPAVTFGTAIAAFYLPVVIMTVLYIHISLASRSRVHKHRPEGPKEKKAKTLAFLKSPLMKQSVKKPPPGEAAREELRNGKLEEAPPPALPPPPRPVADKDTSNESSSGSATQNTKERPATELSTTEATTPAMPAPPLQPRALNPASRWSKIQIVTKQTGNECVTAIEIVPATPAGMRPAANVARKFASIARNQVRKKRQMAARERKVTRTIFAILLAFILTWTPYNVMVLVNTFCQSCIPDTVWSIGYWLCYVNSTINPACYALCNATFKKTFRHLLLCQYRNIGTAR
Protocol: (§1) GPCR panel: Screening against the receptors within the PDSP panel offers an assessment of off-target pharmacological activity at cloned human or rodent CNS receptors, channels, and transporters that could confound CNS-related phenotypes. A total of 46–47 primary binding assays were run in quadruplicate on these compounds at 10 μM, with follow-up secondary binding assays in 11-point dose-response in triplicate for select compounds versus select receptors. Secondary binding assays were executed for all receptors where test compound displaced an average of >50% of radio-labeled standard ligand. As an exception, no secondary assays were carried out for H3, PBR, or GABAA. […]

[2] = target: T2, cloned human or rodent CNS receptors, channels, and transporters (PDSP panel) (Homo sapiens, UniProt P28222); assay: PDSP GPCR panel primary binding assays at 10 μM; conditions: Receptor 5-HT1B, primary assay, 10 μM; for Mean %: mean of Inhibition 1-4
T2 construct: expressed in transfected cells
Protocol: as §1

[3] = target: T3, cloned human or rodent CNS receptors, channels, and transporters (PDSP panel) (Homo sapiens, UniProt P41595); assay: PDSP GPCR panel primary binding assays at 10 μM; conditions: Receptor 5-HT2B, primary assay, 10 μM; for Mean %: mean of Inhibition 1-4
T3 construct: expressed in transfected cells
Protocol: as §1

[4] = target: T4, cloned human or rodent CNS receptors, channels, and transporters (PDSP panel) (Homo sapiens, UniProt P46098); assay: PDSP GPCR panel primary binding assays at 10 μM; conditions: Receptor 5-HT3, primary assay, 10 μM; for Mean %: mean of Inhibition 1-4
T4 construct: expressed in transfected cells
T4 sequence (P46098 24-478): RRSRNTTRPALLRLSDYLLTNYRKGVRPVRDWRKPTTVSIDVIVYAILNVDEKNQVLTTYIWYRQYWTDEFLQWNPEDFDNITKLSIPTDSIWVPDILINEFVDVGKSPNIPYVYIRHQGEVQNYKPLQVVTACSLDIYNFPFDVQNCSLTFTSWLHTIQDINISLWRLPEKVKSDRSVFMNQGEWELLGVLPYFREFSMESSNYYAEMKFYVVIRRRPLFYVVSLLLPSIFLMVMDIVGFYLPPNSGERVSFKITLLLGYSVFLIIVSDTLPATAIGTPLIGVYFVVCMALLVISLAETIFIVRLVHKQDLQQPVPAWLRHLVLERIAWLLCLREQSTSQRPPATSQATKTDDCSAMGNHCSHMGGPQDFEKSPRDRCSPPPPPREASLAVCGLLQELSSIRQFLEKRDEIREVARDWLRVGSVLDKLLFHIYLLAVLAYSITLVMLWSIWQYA
Protocol: as §1

[5] = target: T5, cloned human or rodent CNS receptors, channels, and transporters (PDSP panel) (Homo sapiens, UniProt P47898); assay: PDSP GPCR panel primary binding assays at 10 μM; conditions: Receptor 5-HT5A, primary assay, 10 μM; for Mean %: mean of Inhibition 1-4
T5 construct: expressed in transfected cells
Protocol: as §1

[6] = target: T6, cloned human or rodent CNS receptors, channels, and transporters (PDSP panel) (Homo sapiens, UniProt P50406); assay: PDSP GPCR panel primary binding assays at 10 μM; conditions: Receptor 5-HT6, primary assay, 10 μM; for Mean %: mean of Inhibition 1-4
T6 construct: expressed in transfected cells
Protocol: as §1

[7] = Snapshot IV PK in CD1 mice; assay type: in vivo; conditions: for Vd: read-out: Vss
Protocol: PK data: For snapshot PK studies, pooled plasma was analyzed at 0.5h, 1h, 2h, and 4h following
a single IV dose (3 mg/kg) in CD1 mice (2 mice per cohort) for each compound (Table 2). […]

[8] = system: cellular system; parameters: method as in column References for potency and dosing (the 5th table c13); conditions: published data; References for potency and dosing; cited from earlier work
[9] = cited from earlier work; for Kinetic solubility: aqueous, neutral pH (7.4); for Kinetic solubility (in words): kinetic solubility experiments

T3 sequence (P41595 whole entry): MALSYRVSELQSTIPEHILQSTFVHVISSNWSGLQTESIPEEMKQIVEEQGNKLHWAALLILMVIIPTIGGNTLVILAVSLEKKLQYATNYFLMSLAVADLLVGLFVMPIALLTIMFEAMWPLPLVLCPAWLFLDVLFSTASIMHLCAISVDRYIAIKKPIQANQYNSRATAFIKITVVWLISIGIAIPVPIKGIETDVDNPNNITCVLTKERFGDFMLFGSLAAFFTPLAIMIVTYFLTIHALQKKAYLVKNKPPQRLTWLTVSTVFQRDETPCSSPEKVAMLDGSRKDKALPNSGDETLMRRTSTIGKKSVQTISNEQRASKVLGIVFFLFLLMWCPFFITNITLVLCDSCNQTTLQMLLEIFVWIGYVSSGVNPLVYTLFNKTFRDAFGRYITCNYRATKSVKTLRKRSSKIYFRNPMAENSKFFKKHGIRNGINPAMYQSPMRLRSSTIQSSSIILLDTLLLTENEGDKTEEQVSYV
T6 sequence (P50406 whole entry): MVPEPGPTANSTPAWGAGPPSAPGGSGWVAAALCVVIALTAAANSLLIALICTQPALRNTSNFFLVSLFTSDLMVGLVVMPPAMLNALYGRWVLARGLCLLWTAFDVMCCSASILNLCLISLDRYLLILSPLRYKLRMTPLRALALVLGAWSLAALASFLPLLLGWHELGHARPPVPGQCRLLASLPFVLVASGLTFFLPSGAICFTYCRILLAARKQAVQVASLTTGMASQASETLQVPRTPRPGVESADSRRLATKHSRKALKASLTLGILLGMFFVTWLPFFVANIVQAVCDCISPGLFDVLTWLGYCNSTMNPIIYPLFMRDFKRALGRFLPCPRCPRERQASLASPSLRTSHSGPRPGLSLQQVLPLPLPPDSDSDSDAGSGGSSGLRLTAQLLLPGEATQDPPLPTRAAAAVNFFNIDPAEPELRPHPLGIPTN
T2 sequence (P28222 whole entry): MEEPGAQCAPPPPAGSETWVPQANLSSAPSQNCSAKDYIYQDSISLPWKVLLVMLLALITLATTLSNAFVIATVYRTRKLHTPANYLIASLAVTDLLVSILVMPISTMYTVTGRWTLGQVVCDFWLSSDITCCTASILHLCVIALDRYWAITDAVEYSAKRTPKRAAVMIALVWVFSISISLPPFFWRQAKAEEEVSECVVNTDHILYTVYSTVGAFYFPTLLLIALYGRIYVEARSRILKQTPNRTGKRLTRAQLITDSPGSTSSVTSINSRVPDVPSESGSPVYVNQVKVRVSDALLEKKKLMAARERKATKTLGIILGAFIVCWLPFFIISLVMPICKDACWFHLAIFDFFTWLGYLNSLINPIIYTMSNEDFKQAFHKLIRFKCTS
T5 sequence (P47898 whole entry): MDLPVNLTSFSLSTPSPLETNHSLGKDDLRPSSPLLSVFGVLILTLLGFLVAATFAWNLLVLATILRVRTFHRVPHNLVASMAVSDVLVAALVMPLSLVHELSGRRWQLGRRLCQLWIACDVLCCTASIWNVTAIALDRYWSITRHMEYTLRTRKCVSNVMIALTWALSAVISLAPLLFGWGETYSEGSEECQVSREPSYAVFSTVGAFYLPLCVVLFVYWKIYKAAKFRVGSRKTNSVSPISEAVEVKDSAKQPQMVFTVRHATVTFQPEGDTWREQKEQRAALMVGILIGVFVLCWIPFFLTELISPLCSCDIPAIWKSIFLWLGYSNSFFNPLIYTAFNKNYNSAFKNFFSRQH

| SMILES | Inhibition 1 [1] | Inhibition 2 [1] | Inhibition 3 [1] | Inhibition 4 [1] | Mean % [1] | Inhibition 1 [2] | Inhibition 2 [2] | Inhibition 3 [2] | Inhibition 4 [2] | Mean % [2] | Inhibition 1 [3] | Inhibition 2 [3] | Inhibition 3 [3] | Inhibition 4 [3] | Mean % [3] | Inhibition 1 [4] | Inhibition 2 [4] | Inhibition 3 [4] | Inhibition 4 [4] | Mean % [4] | further results |
| --- | --- | --- | --- | --- | --- | --- | --- | --- | --- | --- | --- | --- | --- | --- | --- | --- | --- | --- | --- | --- | --- |
| O=c1oc2ccccc2cc1-c1cn2cc(Cc3ccc(F)cc3)sc2n1 [UNC10302680A, iMDK] | 4.02% | 16.88% | 25.61% | 10.91% | 14.36% | 28.3% | -13.17% | 0.98% | -13.17% | 0.74% | 9.18% | -38.65% | -23.13% | -31.52% | -21.03% | 1.94% | 26.27% | 17.25% | 14.61% | 15.02% | Inhibition 1 [5]: -14.99%; Inhibition 2 [5]: -18.16%; Inhibition 3 [5]: -6.28%; Inhibition 4 [5]: -0.35%; Mean % [5]: -9.95%; Inhibition 1 [6]: -5.99%; Inhibition 2 [6]: -28.7%; Inhibition 3 [6]: -13.62%; Inhibition 4 [6]: -18.86%; Mean % [6]: -16.79%; clearance ([7]; CD1, mouse, plasma, iv, 3 mg/kg): 37.8 mL/min/kg; Cmax ([7]; CD1, plasma, mouse, 3.0 mg/kg): 1570 ng/mL; half-life ([7]; CD1, plasma, mouse, 3.0 mg/kg): 1.16 h; Vd ([7]; CD1, plasma, mouse, 3.0 mg/kg): 2.61 L/kg; Reported as cell active (<10 μM) [8]: Y (Published data supports that the compound is active in a cellular system when dosed at 10 μM (Y/N)); Kinetic solubility [9]: <1.1 µM; Kinetic solubility (in words) [9]: poor kinetic solubility |
| c1cn2cc(-c3ccc4cn[nH]c4c3)nc(Nc3ccc(N4CCOCC4)cc3)c2n1 [UNC10302678A, Entospletinib (GS-9973)] | 35.72% | 0.8% | 6.09% | 23.54% | 16.54% | 21.82% | -6.09% | 2.36% | -8.65% | 2.36% | 61.2% | 0.79% | -21.45% | 15.05% | 13.9% | 20.59% | 12.98% | 21.06% | 14.69% | 17.33% | Inhibition 1 [5]: 7.17%; Inhibition 2 [5]: -43.49%; Inhibition 3 [5]: -3.12%; Inhibition 4 [5]: -6.68%; Mean % [5]: -11.53%; Inhibition 1 [6]: -41.25%; Inhibition 2 [6]: -29.65%; Inhibition 3 [6]: -11.39%; Inhibition 4 [6]: -15.68%; Mean % [6]: -24.49%; Cmax ([7]; CD1, in vivo, mouse, 3.0 mg/kg): 926 ng/mL; clearance ([7]; CD1, plasma, mouse, 3.0 mg/kg): 28.5 mL/min/kg; half-life ([7]; CD1, plasma, mouse, 3.0 mg/kg): 0.9 h; Vd ([7]; CD1, plasma, mouse, 3.0 mg/kg): 2.34 L/kg; Reported as cell active (<10 μM) [8]: Y (Published data supports that the compound is active in a cellular system when dosed at 10 μM (Y/N)); Kinetic solubility [9]: 0.5 µM; Kinetic solubility (in words) [9]: solubility issues |
